The text below walks through data of patent US11142520B2, “LDHA activity inhibitors” (ARCTIC PHARMA AS, priority 2017, dated 2021).

Structures are written as SMILES.

The target in assay [1] is T1, LDHA (Homo sapiens (Human), UniProt P00338). The assay is described as follows: Coupled diaphorase assay, LDHA. The following applies: lactate to pyruvate direction, 4-7 nM LDHA. The format is biochemical. An excerpt:
(§1) The inhibitory properties of the compounds were investigated using a coupled enzyme assay that links the lactate dehydrogenase (LDH) reaction to the production of fluorescent resorutin by diaphorase.
(§2) Human lactate dehydrogenases (LDH) catalyze the reversible interconversion between pyruvate and lactate. LDH is capable of catalyzing both the forward (pyruvate to lactate) and the reverse (lactate to pyruvate) reaction, using either NADH or NAD^+ as a cofactor. The reaction proceeds in either direction dependent on various factors, such as substrate availability, the presence of necessary cofactors, temperature and pH. Different isoforms (LDH A, B, and C) of the enzyme favor different reaction directions—LDHA prefers the conversion from pyruvate to lactate, whereas LDHB preferentially oxidizes lactate to pyruvate.
The coupled assay relies on the oxidation of NAD^+ to NADH throughout the conversion of lactate to pyruvate by LDH (isoforms A, B and C). The produced NADH serves as cofactor in the diaphorase reaction, which reduces non-fluorescent resazurin to fluorescent resorufin. Therefore, the assay indirectly monitors the rate of pyruvate production. Although the consumption of NADH can be directly monitored due to the intrinsic fluorescence of the molecule (excitation: 340 nm, emission: 460 nm) there are problems linked to the direct readout method. […] Shifting the assay to longer wavelengths by coupling the LDH reaction to the conversion of resazurin to fluorescent resorufin by diaphorase reduces this compound interference. The assay direction was thus chosen to provide a robust and reliable assay. […]
Compounds were tested in duplicates using 2-fold, 3-fold or 4-fold serial dilutions including 11 individual concentrations, starting from 5000 μM to 30 μM. […] The controls allowed for the calculation of the percentage inhibition for each data point. […] Enzyme solution leading to final concentrations of 4-7 nM LDHA or 6 nM LDHB, as well as 0.2 U/ml diaphorase in the reaction well was dispensed into 384-well plates (Greiner bio-one) using a CyBi®-SELMA robotic pipettor. Compound dilutions and the enzyme were incubated for at least 20 min at room temperature. […] The reaction was quenched by the addition of a stop solution (final concentrations: 20 mM EDTA, 400 mM NaCl, 40 mM pyruvate). Fluorescence was read out after 5 min of incubation at an excitation wavelength of 560 nm and an emission wavelength of 590 nm on a Perkin Elmer Victor X plate reader. […]
(§3) Fluorescence data was normalized to DMSO and inhibition controls resulting in percentage inhibition for every compound concentration. Dose response curves were fitted in KaleidaGraph (www.synergy.com) or Dotmatics software package (www.dotmatics.com) using a standard 4-parameter fit (Levenberg-Marquardt fitting procedure), resulting in IC50 values for the test compounds.

Assay [2] addresses T1, LDHA. The assay is described as follows: Isothermal titration calorimetry (ITC). Conditions: 25° C., NADH 1 mM. Format: binding. How it is done:
ITC experiments were performed using a MicorCal PEAQ ITC instrument. Prior to the experiments, LDHA was dialyzed against 50 mM potassium phosphate buffer pH 7.4, 150 mM NaCl, 0.002% pluronic acid F-127 at 4° C. overnight using mini dialysis kits from GE Healthcare. The tested compounds were dissolved to 100 mM in DMSO. After dialysis, the protein was centrifuged at 14,000 rpm at 4° C. for 30 min. Buffer and MilliQ water for the reference cell were degassed prior to use. Protein concentration was determined by A280 nm measurements using a Nanodrop. All ITC experiments were conducted at 25° C. with stirring at 750 rpm. In a typical experiment the compound of interest was loaded into the sample cell at 20 μM and LDHA (200 μM in syringe) was titrated to the compound solution in consecutive injections. NADH (1 mM) and DMSO concentrations (2%) were matched in all solutions. Data were analyzed using the MicroCal PEAQ-ITC analysis software and fitted to a single site binding model, resulting in binding constant Kd, enthalpy ΔH, entropy ΔS and the stoichiometry N.
Background: Isothermal titration calorimetry measures the heat released or taken up as one component is titrated into another.

The next assay concerns the target LDHB (Homo sapiens (Human), UniProt P07195). The assay is described as follows: Coupled diaphorase assay, LDHB. Format: biochemical. The following applies: lactate to pyruvate direction, 6 nM LDHB.
Source text: as §1, §2
The coupled assay relies on the oxidation of NAD^+ to NADH throughout the conversion of lactate to pyruvate by LDH (isoforms A, B and C). The produced NADH serves as cofactor in the diaphorase reaction, which reduces non-fluorescent resazurin to fluorescent resorufin. Therefore, the assay indirectly monitors the rate of pyruvate production. Although the consumption of NADH can be directly monitored due to the intrinsic fluorescence of the molecule (excitation: 340 nm, emission: 460 nm) there are problems linked to the direct readout method. […] Shifting the assay to longer wavelengths by coupling the LDH reaction to the conversion of resazurin to fluorescent resorufin by diaphorase reduces this compound interference. The assay direction was thus chosen to provide a robust and reliable assay.
Applying the LDHA reaction in the preferred direction for the conversion of pyruvate to lactate under oxidation of NADH to NAD^+ would necessitate running the LDHA reaction to about 80% completion and adding the diaphorase assay reagents afterwards in order to avoid enzyme competition for NADH.
The controls allowed for the calculation of the percentage inhibition for each data point. […] Enzyme solution leading to final concentrations of 4-7 nM LDHA or 6 nM LDHB, as well as 0.2 U/ml diaphorase in the reaction well was dispensed into 384-well plates (Greiner bio-one) using a CyBi®-SELMA robotic pipettor. Compound dilutions and the enzyme were incubated for at least 20 min at room temperature. […] The reaction was quenched by the addition of a stop solution (final concentrations: 20 mM EDTA, 400 mM NaCl, 40 mM pyruvate). Fluorescence was read out after 5 min of incubation at an excitation wavelength of 560 nm and an emission wavelength of 590 nm on a Perkin Elmer Victor X plate reader. […]
as §3

The test system of another assay is LDH. Conditions: in vitro; cited from earlier work.
Assay [3] deals with MIA PaCa-2 human pancreatic cells. Conditions: MIA PaCa-2 cells; cited from earlier work.

LDHB, sequence (P07195 whole entry): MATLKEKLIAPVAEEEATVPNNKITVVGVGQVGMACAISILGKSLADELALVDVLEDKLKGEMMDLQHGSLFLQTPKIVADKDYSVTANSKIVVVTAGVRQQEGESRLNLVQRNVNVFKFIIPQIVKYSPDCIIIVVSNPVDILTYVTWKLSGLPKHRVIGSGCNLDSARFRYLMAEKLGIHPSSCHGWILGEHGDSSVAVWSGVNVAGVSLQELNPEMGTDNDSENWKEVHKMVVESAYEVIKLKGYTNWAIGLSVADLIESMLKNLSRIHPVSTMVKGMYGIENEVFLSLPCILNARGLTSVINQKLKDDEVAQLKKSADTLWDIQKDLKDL

Usually IC50 stands for the concentration needed to halve the response being measured. In general, Kd refers to the free concentration of one partner at which half of the binding sites on the other are occupied at equilibrium, for simple one-to-one binding. For the compound `O=C1CC(c2ccc(N3CCOCC3)cc2)(c2ccsc2)NC(=O)C1Sc1cc(Cl)ccc1Cl` (racemic) [Example 10, 3-((2,5-dichlorophenyl)thio)-6-(4-morpholinophenyl)-6-(thiophen-3-yl)piperidine-2,4-dione], on LDHA [1], the 50% inhibitory concentration (IC50) lay within 0.1 to 0.5 µM. At LDHA [2], the “-TΔS” value amounted to 0.944 kcal/mol, binding was put at a Kd of 0.0432 µM, the “N (stoichiometry)” value came out at 0.796 and the ΔH is -11 kcal/mol.
On to `O=C1CC(c2ccsc2)(c2cccc(Br)n2)NC(=O)C1Sc1ccc(F)cc1Cl` (stereo not shown) [Example 2, 6-(6-bromopyridin-2-yl)-3-[(2-chloro-4-fluorophenyl)sulfanyl]-6-(thiophen-3-yl)piperidine-2,4-dione], for which the concentration for half-maximal inhibition (IC50) at LDHA [1] was 10 to 50 µM; on LDHB it was more than 100 µM.
`O=C1CC(c2ccsc2)(c2cccc(OCC3CCCC3)n2)NC(=O)C1Sc1cc(Cl)ccc1Cl` (stereo not shown) [Example 5, 6-[6-(cyclopentylmethoxy)pyridin-2-yl]-3-[(2,5-dichlorophenyl)sulfanyl]-6-(thiophen-3-yl)piperidine-2,4-dione]: on LDHA [1], the half-inhibitory concentration (IC50) is 0.1 to 0.5 µM. In addition, at LDHA [2], the “-TΔS” value was found to be 4.06 kcal/mol, binding was characterised by a dissociation constant (Kd) of 0.671 µM, the “N (stoichiometry)” value turned out to be 0.548 and the ΔH is -4.35 kcal/mol.
`O=C1CC(c2ccsc2)(c2cccc(Br)n2)NC(=O)C1Sc1cccc(Cl)c1Cl` (stereo not shown) [Example 6, 6-(6-bromopyridin-2-yl)-3-[(2,3-dichlorophenyl)sulfanyl]-6-(thiophen-3-yl)piperidine-2,4-dione]: the IC50 at LDHA [1] and at LDHB was more than 100 µM in each case.
In the case of `O=C1CC(c2ccsc2)(c2cccc(OCC3CCCC3)n2)NC(=O)C1Sc1cccc(Cl)c1Cl` (stereo not shown) [Example 7, 6-[6-(cyclopentylmethoxy)pyridin-2-yl]-3-[(2,3-dichlorophenyl)sulfanyl]-6-(thiophen-3-yl)piperidine-2,4-dione], the IC50 on LDHA [1] is 10 to 50 µM; on LDHB, more than 100 µM.
For `CC(C)COC(=O)OC1=C(Sc2ccc(F)cc2Cl)C(=O)NC(c2ccc(N3CCOCC3)cc2)(c2ccsc2)C1` (stereo not shown) [Example 32, 5-((2-chloro-4-fluorophenyl)thio)-2-(4-morpholinophenyl)-6-oxo-2-(thiophen-3-yl)-1,2,3,6-tetrahydropyridin-4-yl iso-butyl carbonate] the same measures were more than 100 µM and more than 100 µM.
`O=C1CC(c2ccc(N3CCOCC3)cc2)(c2ccsc2)NC(=O)C1Sc1ccc(F)cc1Cl` (stereo not shown) [Example 8, 3-((2-chloro-4-fluorophenyl)thio)-6-(4-morpholinophenyl)-6-(thiophen-3-yl)piperidine-2,4-dione]: the half-inhibitory concentration (IC50) at LDHA [1] and on LDHB was 0.1 to 0.5 µM each time.
Consider `NC(=O)C(=O)O` [Oxamate], for which, in the assay with LDH, the “concentration range that inhibits LDH enzyme activity” value is given as “mM range”.
For the compound `COCCOC(=O)OC1=C(Sc2ccc(F)cc2Cl)C(=O)NC(c2ccc(N3CCOCC3)cc2)(c2ccsc2)C1` (stereo not shown) [Example 33, 5-((2-chloro-4-fluorophenyl)thio)-2-(4-morpholinophenyl)-6-oxo-2-(thiophen-3-yl)-1,2,3,6-tetrahydropyridin-4-yl (2-methoxyethyl) carbonate], the concentration for half-maximal inhibition (IC50) at LDHA [1] is 0.5 to 10 µM; on LDHB, more than 100 µM.
`O=C1CC(c2ccc(N3CCOCC3)cc2)(c2ccsc2)NC(=O)C1Sc1ccccc1Cl` (stereo not shown) [Example 24, 3-((2-chlorophenyl)thio)-6-(4-morpholinophenyl)-6-(thiophen-3-yl)piperidine-2,4-dione]: the “time of continuous LDHA inhibition until cell death occurred” value in assay [3] was not below 2 days.
With `COCCOC(=O)OC1=C(Sc2ccc(Cl)cc2Cl)C(=O)NC(c2ccsc2)(c2cccc(OCC3CCCC3)n2)C1` (stereo not shown) [Example 22, 6′-(cyclopentylmethoxy)-5-((2,4-dichlorophenyl)thio)-6-oxo-2-(thiophen-3-yl)-1,2,3,6-tetrahydro-[2,2′-bipyridin]-4-yl (2-methoxyethyl) carbonate], the half-maximal inhibitory concentration (IC50) at LDHA [1] and at LDHB was more than 100 µM in each case.
Regarding `O=C1CC(c2ccsc2)(c2cccc(OCC3CCCC3)n2)NC(=O)C1Sc1ccc(F)cc1Cl` (stereo not shown) [Example 3, 3-[(2-chloro-4-fluorophenyl)sulfanyl]-6-[6-(cyclopentylmethoxy)pyridin-2-yl]-6-(thiophen-3-yl)piperidine-2,4-dione], the IC50 on LDHA [1] lay in the range of 0.5 to 10 µM. Besides, the IC50 on LDHB is more than 100 µM. In addition, on LDHA [2], the “-TΔS” value was 5.11 kcal/mol, the dissociation constant Kd came out at 0.373 µM, the “N (stoichiometry)” value turned out to be 0.721 and the ΔH is -3.68 kcal/mol.
With `O=C1CC(c2ccc(N3CCOCC3)cc2)(c2ccsc2)NC(=O)C1Sc1ccc(Cl)cc1Cl` (stereo not shown) [Example 29, 3-((2,4-dichlorophenyl)thio)-6-(4-morpholinophenyl)-6-(thiophen-3-yl)piperidine-2,4-dione], the 50% inhibitory concentration (IC50) on LDHA [1] was 50 to 100 µM; at LDHB, more than 100 µM.
For `O=C1CC(c2ccsc2)(c2cccc(OCC3CCCC3)n2)NC(=O)C1Sc1ccc(Cl)cc1Cl` (stereo not shown) [Example 1, 6-[6-(cyclopentylmethoxy)pyridin-2-yl]-3-[(2,4-dichlorophenyl)sulfanyl]-6-(thiophen-3-yl)piperidine-2,4-dione], in that order: 10 to 50 µM and more than 100 µM.
For `CC(=O)OC1=C(Sc2ccc(F)cc2Cl)C(=O)NC(c2ccsc2)(c2cccc(OCC3CCCC3)n2)C1` (stereo not shown) [Example 13, 5-((2-chloro-4-fluorophenyl)thio)-6′-(cyclopentylmethoxy)-6-oxo-2-(thiophen-3-yl)-1,2,3,6-tetrahydro-[2,2′-bipyridin]-4-yl acetate], in that order: more than 100 µM and more than 100 µM.
Take `CCOC(=O)OC1=C(Sc2ccc(F)cc2Cl)C(=O)NC(c2ccsc2)(c2cccc(OCC3CCCC3)n2)C1` (stereo not shown) [Example 11, 5-[(2-chloro-4-fluorophenyl)sulfanyl]-2-[6-(cyclopentylmethoxy)pyridin-2-yl]-6-oxo-2-(thiophen-3-yl)-1,2,3,6-tetrahydropyridin-4-yl ethyl carbonate]: the half-maximal inhibitory concentration (IC50) at LDHA [1] and at LDHB was more than 100 µM each time.
